Measurements as given in ChEMBL document CHEMBL3259517, “Synthesis and evaluation of phosphorus containing, specific CDK9/CycT1 inhibitors” (J Med Chem, 2014).

Target: CDK9/cyclin T1 (Homo sapiens, UniProt P50750)
Test: Inhibition of CDK9/CycT1 (unknown origin) using TAMRA-Rbtide and ATP as substrate after 1 hr
Format: protein-complex assay

Sequence of CDK9/cyclin T1 (O60563 whole entry): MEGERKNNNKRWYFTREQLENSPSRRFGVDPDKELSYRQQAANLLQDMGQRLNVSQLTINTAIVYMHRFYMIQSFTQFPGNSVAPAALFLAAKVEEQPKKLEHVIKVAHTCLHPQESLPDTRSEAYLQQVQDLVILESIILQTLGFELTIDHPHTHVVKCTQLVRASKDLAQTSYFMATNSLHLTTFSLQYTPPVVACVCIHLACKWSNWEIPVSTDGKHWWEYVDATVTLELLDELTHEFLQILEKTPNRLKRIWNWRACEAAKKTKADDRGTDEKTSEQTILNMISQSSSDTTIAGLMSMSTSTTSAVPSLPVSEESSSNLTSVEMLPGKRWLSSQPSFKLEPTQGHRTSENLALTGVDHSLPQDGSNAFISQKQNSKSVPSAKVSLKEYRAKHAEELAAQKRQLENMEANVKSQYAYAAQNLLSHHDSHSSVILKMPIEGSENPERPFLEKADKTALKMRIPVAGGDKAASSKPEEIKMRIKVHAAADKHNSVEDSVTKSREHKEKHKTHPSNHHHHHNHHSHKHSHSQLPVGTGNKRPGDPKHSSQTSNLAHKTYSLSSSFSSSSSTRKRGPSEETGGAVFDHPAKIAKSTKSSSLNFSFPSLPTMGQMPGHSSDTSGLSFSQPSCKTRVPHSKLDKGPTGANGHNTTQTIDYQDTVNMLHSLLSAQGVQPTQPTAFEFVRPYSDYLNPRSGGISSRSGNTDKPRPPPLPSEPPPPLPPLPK
Sequence of CDK9/cyclin T1 (P50750 whole entry): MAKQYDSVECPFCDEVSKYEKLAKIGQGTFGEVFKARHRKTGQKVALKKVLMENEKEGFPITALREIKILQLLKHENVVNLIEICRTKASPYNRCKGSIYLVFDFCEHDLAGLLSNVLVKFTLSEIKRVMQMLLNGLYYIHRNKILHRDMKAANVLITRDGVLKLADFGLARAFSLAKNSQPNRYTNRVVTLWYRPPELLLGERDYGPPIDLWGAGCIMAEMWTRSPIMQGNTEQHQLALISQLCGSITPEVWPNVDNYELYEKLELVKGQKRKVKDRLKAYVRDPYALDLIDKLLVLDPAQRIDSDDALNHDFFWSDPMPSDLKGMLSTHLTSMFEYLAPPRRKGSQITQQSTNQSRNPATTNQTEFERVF

Compound | IC50 [µM]
CCOP(=O)(Oc1cccc(Nc2cc(-c3cccc(N)c3)ncn2)c1)c1ccccc1 (stereo not given) | 5.33
CCCP(=O)(Cc1ccc(Nc2cc(-c3cccc([N+](=O)[O-])c3)ncn2)cc1)OCC (stereo not given) | 5.53
CCOP(=O)(CC)Cc1ccc(Nc2cc(-c3cccc([N+](=O)[O-])c3)ncn2)cc1 (stereo not given) | 7.77
CCCP(=O)(Cc1cccc(Nc2cc(-c3cccc(OC)c3)ncn2)c1)OCC (stereo not given) | 6.94
COc1ccccc1-c1cc(Nc2ccc(P(=O)(O)O)cc2)ncn1 | 0.58
CCOP(=O)(CC)c1cccc(Nc2cc(-c3cccc(N)c3)ncn2)c1 (stereo not given) | 9.8
CCOP(=O)(Cc1cccc(Nc2cc(-c3cccc(N)c3)ncn2)c1)c1ccccc1 (stereo not given) | 1.02
CCOP(=O)(Cc1cccc(Nc2cc(-c3ccccc3OC)ncn2)c1)c1ccccc1 (stereo not given) | 0.517
CCOP(=O)(OCC)c1cccc(Nc2cc(-c3cccc([N+](=O)[O-])c3)ncn2)c1 | > 10
CCCP(=O)(Cc1ccc(Nc2cc(-c3cccc(N)c3)ncn2)cc1)OCC (stereo not given) | 7.47
O=[N+]([O-])c1cccc(-c2cc(Nc3ccc(CP(=O)(O)O)cc3)ncn2)c1 | 2.1
CCOP(=O)(Oc1cccc(Nc2cc(-c3cccc([N+](=O)[O-])c3)ncn2)c1)c1ccccc1 (stereo not given) | > 10
O=[N+]([O-])c1cccc(-c2cc(Nc3cccc(P(=O)(O)O)c3)ncn2)c1 | 4.1
CCOP(=O)(c1ccccc1)c1ccc(Nc2cc(-c3cccc([N+](=O)[O-])c3)ncn2)cc1 (stereo not given) | > 10
CCOP(=O)(Cc1cc(Nc2cc(-c3ccccc3OC)ncn2)ccc1C)OCC | 5.22
CCCP(=O)(Cc1cccc(Nc2cc(-c3ccccc3CC)ncn2)c1)OCC (stereo not given) | > 10
CCOP(=O)(Oc1ccc(Nc2cc(-c3ccccc3OC)ncn2)cc1)c1ccccc1 (stereo not given) | 2.84
CCOP(=O)(c1ccccc1)c1ccc(Nc2cc(-c3cccc(N)c3)ncn2)cc1 (stereo not given) | 6.5
CCOP(=O)(CC)c1ccc(Nc2cc(-c3ccccc3OC)ncn2)cc1 (stereo not given) | 0.418
Nc1cccc(-c2cc(Nc3ccc(CP(=O)(O)O)cc3)ncn2)c1 | 1.13

Compound | IC50 [µM]
CCOP(=O)(CC)c1cccc(Nc2cc(-c3cccc([N+](=O)[O-])c3)ncn2)c1 (stereo not given) | > 10
CCCP(=O)(Cc1cccc(Nc2cc(-c3ccc(OC)cc3)ncn2)c1)OCC (stereo not given) | 5.41
CCCP(=O)(OCC)c1ccc(Nc2cc(-c3cccc([N+](=O)[O-])c3)ncn2)cc1 (stereo not given) | > 10
CCCP(=O)(Cc1cccc(Nc2cc(-c3ccc(F)cc3OC)ncn2)c1)OCC (stereo not given) | 0.186
CCOP(=O)(OCC)C(O)c1ccc(Nc2cc(-c3cccc([N+](=O)[O-])c3)ncn2)cc1 (stereo not given) | 4.58
CCOP(=O)(c1ccccc1)c1ccc(Nc2cc(-c3ccccc3OC)ncn2)cc1 (stereo not given) | 0.523
CCCP(=O)(Cc1cccc(Nc2cc(-c3cccc(N)c3)ncn2)c1)OCC (stereo not given) | 0.682
CCOP(=O)(OCC)c1ccc(Nc2cc(-c3cccc([N+](=O)[O-])c3)ncn2)cc1 | > 10
CCOP(=O)(CC)c1ccc(Nc2cc(-c3cccc(N)c3)ncn2)cc1 (stereo not given) | > 10
CCOP(=O)(OCC)C(O)c1cccc(Nc2cc(-c3cccc([N+](=O)[O-])c3)ncn2)c1 (stereo not given) | > 10
CCOP(=O)(CC)Cc1cc(Nc2cc(-c3ccccc3OC)ncn2)ccc1C (stereo not given) | 0.366
CCCP(=O)(Cc1cccc(Nc2cc(-c3ccccc3OC(C)C)ncn2)c1)OCC (stereo not given) | 0.21
CCCP(=O)(Cc1ccc(Nc2cc(-c3ccccc3OC)ncn2)cc1)OCC (stereo not given) | 0.652
CCCP(=O)(Cc1cccc(Nc2cc(-c3cccc(OCc4ccccc4)c3)ncn2)c1)OCC (stereo not given) | > 10
CCCP(=O)(Cc1cccc(Nc2cc(-c3cccc([N+](=O)[O-])c3)ncn2)c1)OCC (stereo not given) | 8.06
CCOP(=O)(OCC)c1cccc(Nc2cc(-c3ccccc3OC)ncn2)c1 | 1.04
CCOP(=O)(CC)c1ccc(Nc2cc(-c3cccc([N+](=O)[O-])c3)ncn2)cc1 (stereo not given) | > 10
CCOP(=O)(CC)Cc1cc(Nc2cc(-c3cccc([N+](=O)[O-])c3)ncn2)ccc1C (stereo not given) | 7.02
CCOP(=O)(Oc1cccc(Nc2cc(-c3ccccc3OC)ncn2)c1)c1ccccc1 (stereo not given) | 3.1
CCOP(=O)(CC)Cc1ccc(Nc2cc(-c3cccc(N)c3)ncn2)cc1 (stereo not given) | 7.53
